{
  "source": "patent US20100130608A1",
  "about": "“COMPOSITIONS AND METHODS FOR REDUCING TRIGLYCERIDE LEVELS” (Martek Biosciences Corporation, priority 2008, published 2010)",
  "key": {"male Wister rats [1]": {"system": "male Wister rats", "test": "Effect on total cholesterol levels in rats", "assay_type": "in vivo, rat", "conditions": "for Serum cholesterol, LSMEAN: least squares mean; for Serum cholesterol, mean: mean ± SD", "procedure": "The effect of the DHA ethyl ester of Example 2 on cholesterol levels was investigated using male Wister rats, and was compared to DHASCO-T® and Lovaza®. The rats were administered either (a) a vehicle control, (b) DHA ethyl ester (0.6 g/kg/day, 1.3 g/kg/day, 2.5 g/kg/day, or 5.0 g/kg/day), (c) DHASCO-T (5.0 g/kg/day), or (d) Lovaza (5.0 g/kg/day) for 28 days. Cholesterol levels, i.e., total cholesterol, of the rats were measured at 14 days and 28 days. Total cholesterol values shown are averages for each treatment group, i.e., actual mean values.\nThe cholesterol results presented below in Table 10 are calculated from the same data set as in Table 9. Cholesterol level values shown in Table 10 are averages for each treatment group, presented as least squares mean values."}, "male Wister rats [2]": {"system": "male Wister rats", "test": "Effect on triglyceride levels in high fructose diet rats", "assay_type": "in vivo, rat", "conditions": "for Triglycerides, mean: oral gavage, mean ± SD; for Serum triglycerides, LSMEAN: least squares mean", "excerpt": "The effect of the DHA ethyl ester (DHA-EE) produced according to the method of Example 2 on triglyceride levels was investigated using male Wister rats. The DHA-EE used in this example contained DHA at about 93.6% (w/w) of the total fatty acid content of the dosage form. The effect of purified DHA-EE was compared to two different DHA-containing products: DHASCO-T® (Martek Bioscience Corporation, Columbia, Md.) and Lovaza® (Reliant Pharmaceuticals, Inc., Durham, N.C.). DHASCO-T® comprises approximately 45% DHA and 55% other fatty acids (with substantially no EPA). Lovaza® comprises approximately 41.7% DHA ethyl ester, 51.7% EPA ethyl ester, and 6.4% other fatty acids. The vehicle control comprised corn oil. 84 Wistar rats were randomized into 7 groups of 12 rats each. Each rat was administered orally a high fructose diet for 4-5 weeks to raise triglyceride levels. After 4-5 weeks, rats with a triglyceride level <300 mg/dL were excluded. Then each rat was administered either (a) a vehicle control, (b) DHA ethyl ester (0.6 g/kg/day, 1.3 g/kg/day, 2.5 g/kg/day, or 5.0 g/kg/day), (c) DHASCO-T (5.0 g/kg/day), or (d) Lovaza (5.0 g/kg/day) for 28 days by oral gavage. Diets were controlled for calories, nutrients and levels of vitamin E. Triglyceride levels of the rats were measured at 14 days and 28 days. Triglyceride values shown are averages for each treatment group, presented as actual mean values.\nThe triglyceride results presented below in Table 8 are calculated from the same data set as in Table 7. Triglyceride values shown in Table 8 are averages for each treatment group, presented as least squares mean values."}, "[3]": {"conditions": "rat, in vivo", "description": "The plasma DHA fatty acid area percent and plasma EPA fatty acid area percent were determine in the rats at day 1 and day 29 (post necropsy)."}, "[4]": {"conditions": "14 day, 0.6 g/kg/day fatty acid"}, "[5]": {"conditions": "14 day, 1.3 g/kg/day fatty acid"}, "[6]": {"conditions": "14 day, 2.5 g/kg/day fatty acid"}, "[7]": {"conditions": "14 day, 5.0 g/kg/day fatty acid"}, "[8]": {"conditions": "28 day, 0.6 g/kg/day fatty acid"}, "[9]": {"conditions": "28 day, 1.3 g/kg/day fatty acid"}, "[10]": {"conditions": "28 day, 2.5 g/kg/day fatty acid"}, "[11]": {"conditions": "28 day, 5.0 g/kg/day fatty acid"}},
  "note": "Marks after values point to notes of the source that are not given here.",
  "data": [
    {"smiles": "CC/C=C\\C/C=C\\C/C=C\\C/C=C\\C/C=C\\C/C=C\\CCC(=O)OCC", "note": "[DHA-EE, ethyl docosahexaenoate]", "values": [
      {"measurement": "Serum cholesterol % of control, LSMEAN", "setting": "male Wister rats [1]; [4]", "value": "80 % of control"},
      {"measurement": "Serum cholesterol % of control, mean", "setting": "male Wister rats [1]; [4]", "value": "79 % of control"},
      {"measurement": "Serum cholesterol, LSMEAN", "setting": "male Wister rats [1]; [4]", "value": 72.4, "unit": "mg/dL"},
      {"measurement": "Serum cholesterol, mean", "setting": "male Wister rats [1]; [4]", "value": "72.2 ± 17.7", "unit": "mg/dL"},
      {"measurement": "Serum cholesterol % of control, LSMEAN", "setting": "male Wister rats [1]; [5]", "value": "82 % of control"},
      {"measurement": "Serum cholesterol % of control, mean", "setting": "male Wister rats [1]; [5]", "value": "82 % of control"},
      {"measurement": "Serum cholesterol, LSMEAN", "setting": "male Wister rats [1]; [5]", "value": 74.6, "unit": "mg/dL"},
      {"measurement": "Serum cholesterol, mean", "setting": "male Wister rats [1]; [5]", "value": "75.0 ± 24.0", "unit": "mg/dL"},
      {"measurement": "Serum cholesterol % of control, LSMEAN", "setting": "male Wister rats [1]; [6]", "value": "85 % of control"},
      {"measurement": "Serum cholesterol % of control, mean", "setting": "male Wister rats [1]; [6]", "value": "85 % of control"},
      {"measurement": "Serum cholesterol, LSMEAN", "setting": "male Wister rats [1]; [6]", "value": 77.4, "unit": "mg/dL"},
      {"measurement": "Serum cholesterol, mean", "setting": "male Wister rats [1]; [6]", "value": "77.6 ± 23.1", "unit": "mg/dL"},
      {"measurement": "Serum cholesterol % of control, LSMEAN", "setting": "male Wister rats [1]; [7]", "value": "75 % of control"},
      {"measurement": "Serum cholesterol % of control, mean", "setting": "male Wister rats [1]; [7]", "value": "74 % of control"},
      {"measurement": "Serum cholesterol, LSMEAN", "setting": "male Wister rats [1]; [7]", "value": 67.8, "unit": "mg/dL"},
      {"measurement": "Serum cholesterol, mean", "setting": "male Wister rats [1]; [7]", "value": "67.1 ± 17.9", "unit": "mg/dL"},
      {"measurement": "Serum cholesterol % of control, LSMEAN", "setting": "male Wister rats [1]; [8]", "value": "80 % of control"},
      {"measurement": "Serum cholesterol % of control, mean", "setting": "male Wister rats [1]; [8]", "value": "80 % of control"},
      {"measurement": "Serum cholesterol, LSMEAN", "setting": "male Wister rats [1]; [8]", "value": 80.6, "unit": "mg/dL"},
      {"measurement": "Serum cholesterol, mean", "setting": "male Wister rats [1]; [8]", "value": "80.3 ± 21.8", "unit": "mg/dL"},
      {"measurement": "Serum cholesterol % of control, LSMEAN", "setting": "male Wister rats [1]; [9]", "value": "62 % of control"},
      {"measurement": "Serum cholesterol % of control, mean", "setting": "male Wister rats [1]; [9]", "value": "62 % of control"},
      {"measurement": "Serum cholesterol, LSMEAN", "setting": "male Wister rats [1]; [9]", "value": "61.6† mg/dL"},
      {"measurement": "Serum cholesterol, mean", "setting": "male Wister rats [1]; [9]", "value": "62.0 ± 16.0", "unit": "mg/dL"},
      {"measurement": "Serum cholesterol % of control, LSMEAN", "setting": "male Wister rats [1]; [10]", "value": "72 % of control"},
      {"measurement": "Serum cholesterol % of control, mean", "setting": "male Wister rats [1]; [10]", "value": "72 % of control"},
      {"measurement": "Serum cholesterol, LSMEAN", "setting": "male Wister rats [1]; [10]", "value": "71.3† mg/dL"},
      {"measurement": "Serum cholesterol, mean", "setting": "male Wister rats [1]; [10]", "value": "71.5 ± 17.8", "unit": "mg/dL"},
      {"measurement": "Serum cholesterol % of control, LSMEAN", "setting": "male Wister rats [1]; [11]", "value": "60 % of control"},
      {"measurement": "Serum cholesterol % of control, mean", "setting": "male Wister rats [1]; [11]", "value": "60 % of control"},
      {"measurement": "Serum cholesterol, LSMEAN", "setting": "male Wister rats [1]; [11]", "value": "60.9† mg/dL"},
      {"measurement": "Serum cholesterol, mean", "setting": "male Wister rats [1]; [11]", "value": "60.2 ± 19.3", "unit": "mg/dL"},
      {"measurement": "Effect on cholesterol levels (in words)", "setting": "male Wister rats [1]; by 14 days, even at the lowest dosage level", "value": "reduces cholesterol levels"},
      {"measurement": "Serum triglycerides % of control, LSMEAN", "setting": "male Wister rats [2]; [4]", "value": "65 % of control"},
      {"measurement": "Triglycerides % of control, mean", "setting": "male Wister rats [2]; [4]", "value": "67 % of control"},
      {"measurement": "Triglycerides, mean", "setting": "male Wister rats [2]; [4]", "value": "176.5 ± 96.4", "unit": "mg/dL"},
      {"measurement": "Serum triglycerides, LSMEAN", "setting": "male Wister rats [2]; [4]", "value": "168.4† mg/dL"},
      {"measurement": "Serum triglycerides % of control, LSMEAN", "setting": "male Wister rats [2]; [5]", "value": "67 % of control"},
      {"measurement": "Triglycerides % of control, mean", "setting": "male Wister rats [2]; [5]", "value": "66 % of control"},
      {"measurement": "Triglycerides, mean", "setting": "male Wister rats [2]; [5]", "value": "175.2 ± 50.6", "unit": "mg/dL"},
      {"measurement": "Serum triglycerides, LSMEAN", "setting": "male Wister rats [2]; [5]", "value": "173.6† mg/dL"},
      {"measurement": "Serum triglycerides % of control, LSMEAN", "setting": "male Wister rats [2]; [6]", "value": "47 % of control"},
      {"measurement": "Triglycerides % of control, mean", "setting": "male Wister rats [2]; [6]", "value": "44 % of control"},
      {"measurement": "Triglycerides, mean", "setting": "male Wister rats [2]; [6]", "value": "115.5 ± 60.9", "unit": "mg/dL"},
      {"measurement": "Serum triglycerides, LSMEAN", "setting": "male Wister rats [2]; [6]", "value": "120.2† mg/dL"},
      {"measurement": "Serum triglycerides % of control, LSMEAN", "setting": "male Wister rats [2]; [7]", "value": "43 % of control"},
      {"measurement": "Triglycerides % of control, mean", "setting": "male Wister rats [2]; [7]", "value": "37 % of control"},
      {"measurement": "Triglycerides, mean", "setting": "male Wister rats [2]; [7]", "value": "97.6 ± 47.8", "unit": "mg/dL"},
      {"measurement": "Serum triglycerides, LSMEAN", "setting": "male Wister rats [2]; [7]", "value": "110.7† mg/dL"},
      {"measurement": "Serum triglycerides % of control, LSMEAN", "setting": "male Wister rats [2]; [8]", "value": "93 % of control"},
      {"measurement": "Triglycerides % of control, mean", "setting": "male Wister rats [2]; [8]", "value": "95 % of control"},
      {"measurement": "Triglycerides, mean", "setting": "male Wister rats [2]; [8]", "value": "182.7 ± 86.9", "unit": "mg/dL"},
      {"measurement": "Serum triglycerides, LSMEAN", "setting": "male Wister rats [2]; [8]", "value": 174.5, "unit": "mg/dL"},
      {"measurement": "Serum triglycerides % of control, LSMEAN", "setting": "male Wister rats [2]; [9]", "value": "60 % of control"},
      {"measurement": "Triglycerides % of control, mean", "setting": "male Wister rats [2]; [9]", "value": "60 % of control"},
      {"measurement": "Triglycerides, mean", "setting": "male Wister rats [2]; [9]", "value": "114.7 ± 37.2", "unit": "mg/dL"},
      {"measurement": "Serum triglycerides, LSMEAN", "setting": "male Wister rats [2]; [9]", "value": "113.1† mg/dL"},
      {"measurement": "Serum triglycerides % of control, LSMEAN", "setting": "male Wister rats [2]; [10]", "value": "60 % of control"},
      {"measurement": "Triglycerides % of control, mean", "setting": "male Wister rats [2]; [10]", "value": "56 % of control"},
      {"measurement": "Triglycerides, mean", "setting": "male Wister rats [2]; [10]", "value": "107.9 ± 58.4", "unit": "mg/dL"},
      {"measurement": "Serum triglycerides, LSMEAN", "setting": "male Wister rats [2]; [10]", "value": "112.6† mg/dL"},
      {"measurement": "Serum triglycerides % of control, LSMEAN", "setting": "male Wister rats [2]; [11]", "value": "47 % of control"},
      {"measurement": "Triglycerides % of control, mean", "setting": "male Wister rats [2]; [11]", "value": "41 % of control"},
      {"measurement": "Triglycerides, mean", "setting": "male Wister rats [2]; [11]", "value": "78.9 ± 46.5", "unit": "mg/dL"},
      {"measurement": "Serum triglycerides, LSMEAN", "setting": "male Wister rats [2]; [11]", "value": "87.6† mg/dL"},
      {"measurement": "Effect on triglyceride levels (in words)", "setting": "male Wister rats [2]; at 14 days, even at the lowest dosage level (0.6 g/kg/day)", "value": "reduces triglyceride levels"},
      {"measurement": "Triglyceride levels versus control (in words)", "setting": "male Wister rats [2]; day 28, 0.6 g DHA-EE", "value": "not significantly lower than control"},
      {"measurement": "Plasma DHA fatty acid area percent (in words)", "setting": "[3]", "value": "correlates with increasing dosing of DHA"},
      {"measurement": "Plasma EPA fatty acid area percent (in words)", "setting": "[3]", "value": "does not increase in rats administered DHA-EE or DHASCO® to the same extent that it is increased in Lovaza®"}
    ]}
  ]
}
